Assay results from patent US20250171461A1, “STIMULATOR OF INTERFERON GENES (STING) MODULATORS, AND COMPOSITIONS AND METHODS THEREOF” (Geode Therapeutics Inc., priority 2022, published 2025).

The compounds below were run against T1, human HAQ STING isoform (hSTING HAQ) (Homo sapiens, UniProt Q86WV6, G230A/H232R/R293Q/R71H) (assay: IFN-β mRNA level in THP1 cells (qPCR, STING agonist cellular activity)). Settings: compound at 3.6 μM, 2 hrs, IFNβ expression normalized against GAPDH by the 2^-ΔΔCT method, DMSO = 1.0.
T1 construct: THP1 cells express the naturally occurring human HAQ STING isoform (hSTING HAQ); host or cells: THP1
Format: cell-based
Description: Cellular activity of STING agonists was determined by mRNA levels of IFN-β in THP1 (Otwo Biotech HTX1621) cell line. THP1 cells express the naturally occurring human HAQ STING isoform (hSTING HAQ), which responses to the activation of STING agonists.
THP1 cells were seeded into Falcon 12-well cell Culture Plate (Corning #353043) at 9×10^5 cells per well, in 1 ml complete culture medium (RPMI-1640, GIBCO #C1187500BT) containing 10% heat inactivated FBS (GIBCO #10099141C), 1% Pen-Strep (HyClone SV30010) and incubated at 37° ΔC, 5% CO2 overnight. On day 2, compound (final concentration at 3.6 μM) or DMSO (0.1%, Sigma Aldrich #8418) was added to THP1 cells and further incubated for 2 hrs min at 37° ΔC, 5% CO2. Cells were then collected for RNA extraction.
Total RNA was extracted with TRIzol reagent (Invitrogen #15596026) and […] was used to synthesize first-strand cDNA with Maxima First Strand cDNA Synthesis Kit (TAKARA #RR036A). Quantitative PCR was performed with Maxima SYBR Green qPCR Master Mix (ABI #4367659, USA). The primer sequences used were as follows: GAPDH (5′-[…]-3′, 5′-[…]-3′). INFP3 (5′-[…]-3′,5′-[…]-3′) Real-time PCR was performed on QuantStudio™ 5 Real-Time PCR System (Thermo Fisher). Relative expression levels of IFNβ gene were normalized against the level of GAPDH expression by the 2^−ΔΔCT method. Each PCR reaction was performed in triplicates.

T1 sequence (Q86WV6 whole entry R71H/G230A/H232R/R293Q, canonical isoform): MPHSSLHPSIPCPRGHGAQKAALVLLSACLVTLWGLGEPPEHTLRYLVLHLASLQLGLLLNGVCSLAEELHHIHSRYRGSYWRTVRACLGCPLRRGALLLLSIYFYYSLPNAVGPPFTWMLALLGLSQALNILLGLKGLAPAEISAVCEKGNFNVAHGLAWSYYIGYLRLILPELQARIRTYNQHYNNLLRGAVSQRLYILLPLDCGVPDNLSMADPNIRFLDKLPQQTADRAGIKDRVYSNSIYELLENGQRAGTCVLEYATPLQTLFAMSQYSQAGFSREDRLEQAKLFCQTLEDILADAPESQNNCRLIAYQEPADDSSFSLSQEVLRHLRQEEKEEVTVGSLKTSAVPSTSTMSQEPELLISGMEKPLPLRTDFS

| SMILES | Relative mRNA INFβ/GAPDH THP 1 |
| --- | --- |
| COc1cc(CN(Cc2cn3c4c(c(N(C)C5CCCNC5)c(F)cc4c2=O)OCC3C)[C@H]2CCCN(c3ccc(N)nc3)C2)ccn1.Cl (stereo partly drawn) [Compound 43, 6-((((S)-1-(6-aminopyridin-3-yl)piperidin-3-yl)((2-methoxypyridin-4-yl)methyl)amino)methyl)-9-fluoro-3-methyl-10-(methyl(piperidin-3-yl)amino)-2H-[1,4]oxazino[2,3,4-ij]quinolin-7(3H)-one Hydrochloride] | 1.2 |
| COc1cc(CN(Cc2cn3c4c(c(N5CCC6(CC5)CC(O)CO6)c(F)cc4c2=O)OCC3C)[C@H]2CCCN(c3ccc(N)nc3)C2)ccn1 (stereo partly drawn) [Compound 44, 6-((((S)-1-(6-aminopyridin-3-yl)piperidin-3-yl)((2-methoxypyridin-4-yl)methyl)amino)methyl)-9-fluoro-10-(3-hydroxy-1-oxa-8-azaspiro[4.5]decan-8-yl)-3-methyl-2H-[1,4]oxazino[2,3,4-ij]quinolin-7(3H)-one] | 642.4 |
| COc1cc(CN(Cc2cn3c4c(c(N5CC6(CCN(C)CC6)C5)c(F)cc4c2=O)OCC3C)[C@H]2CCCN(c3ccc(N)nc3)C2)ccn1 (stereo partly drawn) [Compound 45, 6-((((S)-1-(6-aminopyridin-3-yl)piperidin-3-yl)((2-methoxypyridin-4-yl)methyl)amino)methyl)-9-fluoro-3-methyl-10-(7-methyl-2,7-diazaspiro[3.5]nonan-2-yl)-2H-[1,4]oxazino[2,3,4-ij]quinolin-7(3H)-one] | 595.1 |
| COc1cc(CN(Cc2cn3c4c(c(N5CC6CC(F)(F)CC6C5)c(F)cc4c2=O)OCC3C)[C@H]2CCCN(c3ccc(N)nc3)C2)ccn1 (stereo partly drawn) [Compound 46, 6-((((S)-1-(6-aminopyridin-3-yl)piperidin-3-yl)((2-methoxypyridin-4-yl)methyl)amino)methyl)-10-(5,5-difluorohexahydrocyclopenta[c]pyrrol-2(1H)-yl)-9-fluoro-3-methyl-2H-[1,4]oxazino[2,3,4-ij]quinolin-7(3H)-one] | 691.4 |
| COc1cc(CN(Cc2cn3c4c(c(F)c(F)cc4c2=O)OCCC3)[C@H]2CCCN(c3ccc(N)nc3)C2)ccn1 [Compound 47, (S)-7-(((1-(6-aminopyridin-3-yl)piperidin-3-yl)((2-methoxypyridin-4-yl)methyl)amino)methyl)-10,11-difluoro-3,4-dihydro-[1,4]oxazepino[2,3,4-ij]quinolin-8(2H)-one] | 710.4 |
| COc1cc(CN(Cc2cn3c4c(c(F)c(F)cc4c2=O)OCC3(C)C)[C@H]2CCCN(c3ccc(N)nc3)C2)ccn1 [Compound 48, (S)-6-(((1-(6-aminopyridin-3-yl)piperidin-3-yl)((2-methoxypyridin-4-yl)methyl)amino)methyl)-9,10-difluoro-3,3-dimethyl-2H-[1,4]oxazino[2,3,4-ij]quinolin-7(3H)-one] | 1202.3 |
| COc1cc(CN(Cc2cn3c4c(c(F)c(F)cc4c2=O)OC2(CCC2)C3)[C@H]2CCCN(c3ccc(N)nc3)C2)ccn1 [Compound 49, (S)-6-(((1-(6-aminopyridin-3-yl)piperidin-3-yl)((2-methoxypyridin-4-yl)methyl)amino)methyl)-9,10-difluorospiro[[1,4]oxazino[2,3,4-ij]quinoline-2,1′-cyclobutan]-7(3H)-one] | 5276.2 |
| COc1cc(CN(Cc2cn3c4c(c(F)c(F)cc4c2=O)OC(C)(C)C3)[C@H]2CCCN(c3ccc(N)nc3)C2)ccn1 [Compound 50, (S)-6-(((1-(6-aminopyridin-3-yl)piperidin-3-yl)((2-methoxypyridin-4-yl)methyl)amino)methyl)-9,10-difluoro-2,2-dimethyl-2H-[1,4]oxazino[2,3,4-ij]quinolin-7(3H)-one] | 6723.5 |
| COc1cc(CN(Cc2cn3c4c(c(F)c(F)cc4c2=O)OC(C)C3)[C@H]2CCCN(c3ccc(N)nc3)C2)ccn1 (stereo partly drawn) [Compound 51, 6-((((S)-1-(6-aminopyridin-3-yl)piperidin-3-yl)((2-methoxypyridin-4-yl)methyl)amino)methyl)-9,10-difluoro-2-methyl-2H-[1,4]oxazino[2,3,4-ij]quinolin-7(3H)-one] | 7257.8 |
| COc1cc(CN(Cc2cn3c4c(cc(F)c(F)c4c2=O)OCC3C)[C@H]2CCCN(c3ccc(N)nc3)C2)ccn1 (stereo partly drawn) [Compound 52, 6-((((S)-1-(6-aminopyridin-3-yl)piperidin-3-yl)((2-methoxypyridin-4-yl)methyl)amino)methyl)-8,9-difluoro-3-methyl-2H-[1,4]oxazino[2,3,4-ij]quinolin-7(3H)-one] | 178.2 |
| COc1cc(CN(Cc2cn3c4c(c(F)c(F)cc4c2=O)OCC3C)[C@H]2CCCN(c3cnc4[nH]ncc4c3)C2)ccn1 (stereo partly drawn) [Compound 54, 6-((((S)-1-(1H-pyrazolo[3,4-b]pyridin-5-yl)piperidin-3-yl)((2-methoxypyridin-4-yl)methyl)amino)methyl)-9,10-difluoro-3-methyl-2H-[1,4]oxazino[2,3,4-ij]quinolin-7(3H)-one] | 3.9 |
| COc1cc(CN(Cc2cn3c4c(c(Br)c(F)cc4c2=O)OCC3C)[C@H]2CCCN(c3ccc(N)nc3)C2)ccn1 (stereo partly drawn) [Compound 55, 6-((((S)-1-(6-aminopyridin-3-yl)piperidin-3-yl)((2-methoxypyridin-4-yl)methyl)amino)methyl)-10-bromo-9-fluoro-3-methyl-2H-[1,4]oxazino[2,3,4-ij]quinolin-7(3H)-one] | 655.0 |
| COc1cc(CN(Cc2cn3c4c(c(-c5ccncc5)c(F)cc4c2=O)OCC3C)[C@H]2CCCN(c3ccc(N)nc3)C2)ccn1 (stereo partly drawn) [Compound 56, 6-((((S)-1-(6-aminopyridin-3-yl)piperidin-3-yl)((2-methoxypyridin-4-yl)methyl)amino)methyl)-9-fluoro-3-methyl-10-(pyridin-4-yl)-2H-[1,4]oxazino[2,3,4-ij]quinolin-7(3H)-one] | 366.2 |
| COc1cc(CN(Cc2cn3c4c(c(C)c(F)cc4c2=O)OCC3C)[C@H]2CCCN(c3ccc(N)nc3)C2)ccn1 (stereo partly drawn) [Compound 57, 6-((((S)-1-(6-aminopyridin-3-yl)piperidin-3-yl)((2-methoxypyridin-4-yl)methyl)amino)methyl)-9-fluoro-3,10-dimethyl-2H-[1,4]oxazino[2,3,4-ij]quinolin-7(3H)-one] | 580.9 |
| COc1cc(CN(Cc2cn3c4c(c(C5=CCSCC5)c(F)cc4c2=O)OCC3C)[C@H]2CCCN(c3ccc(N)nc3)C2)ccn1 (stereo partly drawn) [Compound 58, 6-((((S)-1-(6-aminopyridin-3-yl)piperidin-3-yl)((2-methoxypyridin-4-yl)methyl)amino)methyl)-10-(3,6-dihydro-2H-thiopyran-4-yl)-9-fluoro-3-methyl-2H-[1,4]oxazino[2,3,4-ij]quinolin-7(3H)-one] | 688.4 |
| COc1cc(CN(Cc2cn3c4c(c(C5=CCN(C6CC6)CC5)c(F)cc4c2=O)OCC3C)[C@H]2CCCN(c3ccc(N)nc3)C2)ccn1 (stereo partly drawn) [Compound 59, 6-((((S)-1-(6-aminopyridin-3-yl)piperidin-3-yl)((2-methoxypyridin-4-yl)methyl)amino)methyl)-10-(1-cyclopropyl-1,2,3,6-tetrahydropyridin-4-yl)-9-fluoro-3-methyl-2H-[1,4]oxazino[2,3,4-ij]quinolin-7(3H)-one] | 316.7 |
